Experimental data as given in patent US20260231914A1, “BRAIN-DERIVED NEUROTROPHIC FACTOR-NANO LUCIFERASE TRANSGENIC RODENTS AND METHODS OF USE THEREOF” (University of Florida Research Foundation, Incorporated, priority 2023, published 2026).
“Also recorded” adds a separate entry of the source. Counter-ions that a name gives are not always drawn.

Tests used:
BDNF-NLuc [1] = experiment: LOPAC library screening, NLuc activity in cultured Bdnf^NLuc/+ neurons (HTS); assay type: cell-based, mouse; conditions: 24 hours; for hit status in repeat screening with 4 different plates of cultured neurons (FIG. 5D): different batch of neurons; for hit: NLuc activity in neurons increased to more than 3× standard deviations over the mean: LOPAC compounds 10 μM, DIV7 neurons, FIGS. 5A-5D
Description: We tested the scalability of the Bdnf^NLuc/+ phenotypic assay by screening the 1280-compound Library of Pharmacologically Active Compounds (LOPAC). We dissected out cortices and hippocampi of 8 Bdnf^NLuc/+ embryos at E18.5 from 2 timed pregnant mice, prepared a suspension of dissociated neurons (10,000 cells/80 μl), transferred 40 ml of the suspension into each of eight 50-ml Falcon centrifuge tubes, used the liquid handling device to plate cells from each aliquot of 40-ml cell suspension onto a 384-well plate (80 μl/well), and cultured neurons.
Using 2 sets of 4 plates each of DIV7 neuronal cultures, we removed 20 μl of medium from each well and then added each LOPAC compound in 20 μl of fresh medium to a well to reach a final concentration of 10 μM. LOPAC compounds (320) were added to wells in the middle 20 columns of each plate, while the first 2 and last 2 columns were used for vehicle controls and positive controls. After 24 hours of incubation, we inverted plates to dump culture medium and then measured NLuc activity in neurons. The NLuc activity in each well is normalized to the average of NLuc activities in 1280 compound-containing wells. […] Compounds that increased the NLuc activity to more than 3× standard deviations (3×SDs) over the mean were considered a hit, and in this case, there are 7 hits in the first set of plates (FIG. 5A) and 10 hits in the second set of plates (FIG. 5B), 7 of which are shared. When the average of duplicate assays for each compound is plotted, we identify the same hits from the second set of plates, with the exception of hit 8 (FIG. 5C). To test the repeatability of the assay in different batches of cultured neurons, we repeated the screening with 4 different plates of cultured neurons.
(§1) Compound treatment and LOPAC library screening. Compound treatment or library screening in primary cultures of Bdnf^NLuc/+ mouse neurons on day 7 in vitro (DIV7) was performed by replacing one-quarter of the culture medium with equal volume of compound-containing medium to yield the desired final concentration for each compound. For the library of pharmacologically active compounds (LOPAC, Millipore), compounds in the original source plates were first dosed using a pintool into 384-well plates containing feeding medium to create a secondary source plate with compounds at 40 μM using the Beckman Coulter's Biomek NXP automated liquid handler (Beckman). 1.6% DMSO and 40 μM (+)-Bay K8644 (Sigma) were added to the first two and the last two columns of the secondary source plate as vehicle and positive control, respectively. Compounds in the secondary source plates were then added to culture neurons in the 384-well plates using a Versette liquid handler. Neurons were treated with compounds for 24 hours in a humidified incubator set to 37° C. and 5% CO2. Luciferase activity was detected the next day using Nano-Glo Luciferase Assay System (Promega) according to the manufacturer's instruction. Luminescence intensity was measured using a microplate reader (FLUOstar Omega, BMG LABTECH) at 460 nm.

BDNF-NLuc [2] = experiment: NLuc activity (BDNF-NLuc levels) in cultured Bdnf^NLuc/+ neurons and media after compound treatment; assay type: cell-based, mouse
Description: We tested our assay for suitability for HTS by using two positive controls. […] The assay produces a good Z′ for both 10 mM KCl and 10 μM DM (FIGS. 4A-4C) (Zhang et al., 1999). To measure NLuc activities in cells, we can simply invert a plate to dump culture medium and then add the Promega Nano-Glo mix, whereas we must transfer a certain amount of culture medium to a new plate and then add the Promega Nano-Glo mix to measure NLuc activities in media.
Primary cortical/hippocampal cell culture and maintenance. Brains of E18.5 Bdnf^NLuc/+ embryos were collected and placed in ice-cold Ca^2+ and Mg^2+ free Hanks' balanced salt solution (HBSS) supplemented with Penicillin-Streptomycin (Pen/Strep, 50 U/mL, Gibco), 25 mM D-glucose, 1 mM pyruvate, and 20 mM HEPES. Cortices and hippocampi were isolated and digested with papain (~12 U/mL, Worthington) at 37° C. for 20 min. Brain tissues were washed with media containing Neurobasal (Gibco), 4% fetal bovine serum (FBS, HyClone), and Pen/Strep. The tissue was gently triturated and allowed to settle, and the supernatant was filtered through a 40 μm cell strainer. Cells were centrifuged at 420×g for 4 min and resuspended in plating media [Neurobasal, 2% FBS, 2% B27 (Gibco), 2 mM GlutaMAX (Gibco), and Pen/Strep]. 1.0×10^4 or 4.5×10^4 cells were plated onto white Greiner μClear 384-well plate (80 μl/well) or PDL-coated 96-well plate (200 μl/well), respectively. Sixteen hours after plating, 75% of the plating media was replaced by feeding media [Neurobasal, 2% B27, 2 mM GlutaMAX, and Pen/Strep] supplemented with 16 μM 5-fluoro-2′-deoxyuridine (FUdR) to prevent overgrowth of non-neuronal cells. Plating and media changes were performed using a Versette liquid handler (Thermo Fisher Scientific) or an 8-channel pipette for the 384-well and 96-well plates, respectively. Cells were maintained at 37° C. and 5% CO2 incubator.
as §1

Bdnf gene expression = conditions: cited from earlier work; for Bdnf gene expression: literature reports, no concentration given
Bdnf mRNA = experiment: qRT-PCR of Bdnf mRNA and Bdnf mRNA variants in DIV7 Bdnf^NLuc/+ neurons; assay type: cell-based, mouse; conditions: 5 μM, 24 hours
Description: We treated DIV7 Bdnf^NLuc/+ neurons in a 24-well plate with 5 μM GR127935-HCl for 24 hours, isolated total RNA from cultured cells in each well, and ran quantitative RT-PCR (qRT-PCR) to determine levels of total Bdnf mRNA (coding), as well as four major Bdnf mRNA variants (exon 1, exon 2, exon 4, and exon 6).
qRT-PCR validation of HTS hit. DIV7 Bdnf^NLuc/+ neurons were treated in a 24-well plate with 5 μM GR127935-HCl for 24 hours, after which total RNA was isolated from cultured cells in each well and used to perform quantitative RT-PCR (qRT-PCR) to determine the levels of total Bdnf mRNA (coding), as well as four major Bdnf mRNA variants (exon 1, exon 2, exon 4, and exon 6). Levels of Bdnf mRNA variants were quantified using qRT-PCR with 18S rRNA as the internal control.

[3] = system: protein transport from the ER to the Golgi complex; conditions: Helms and Rothman, 1992; cited from earlier work
[4] = KCl 10 mM added DIV7, measured DIV8 (24 hours)
[5] = DM 2-10 μM added DIV7, measured DIV8, listed as DM

SMILES	hit status in repeat screening with 4 different plates of cultured neurons (FIG. 5D) (BDNF-NLuc [1]; 10 μM)	hit: NLuc activity in neurons increased to more than 3× standard deviations over the mean (BDNF-NLuc [1])	Bdnf gene expression (Bdnf gene expression)	other results
CCCc1c(-c2ccc(O)cc2)nn(-c2ccc(O)cc2)c1-c1ccc(O)cc1 [1,3,5-Tris(4-hydroxyphenyl)-4-propyl-1H-pyrazole]	rediscovered	above dotted line	–	hit: NLuc activity in neurons increased to more than 3× standard deviations over the mean (BDNF-NLuc [1]; listed as PPT): hits
COC(=O)C1=C(C)NC(C)=C([N+](=O)[O-])C1c1ccccc1C(F)(F)F (stereo not shown) [Bay K8644]	rediscovered	hits and above dotted line	stimulates Bdnf gene expression	BDNF levels (NLuc activity) (BDNF-NLuc [2]; Bay K8644 10 μM, DIV7, 24 hours, 3 batches of cultured neurons): increased BDNF levels
COc1ccc(NC(=O)c2ccc(-c3ccc(-c4noc(C)n4)cc3C)cc2)cc1N1CCN(C)CC1 [GR127935-HCl]	rediscovered	above dotted line	–	hit: NLuc activity in neurons increased to more than 3× standard deviations over the mean (BDNF-NLuc [1]; listed as GR127935 hydrochloride hydrate): hits; Bdnf mRNA variant exon 1 (Bdnf mRNA): stimulating transcription; Bdnf mRNA variant exon 2 (Bdnf mRNA): stimulating transcription; Bdnf mRNA variant exon 4 (Bdnf mRNA): stimulating transcription; total Bdnf mRNA (coding) levels (Bdnf mRNA; 18S rRNA internal control): elevated Bdnf mRNA levels
[Cl-].[K+] [KCl]	–	–	stimulates Bdnf gene expression	levels of BDNF-NLuc in media (NLuc activity) (BDNF-NLuc [2]; [4]): elevated; also recorded: increased; levels of BDNF-NLuc in neurons (NLuc activity) (BDNF-NLuc [2]; [4]): elevated; also recorded: increased; Bdnf gene expression in cultured neurons (Bdnf gene expression; KCl 50 mM for 90 min (Ghosh et al., 1994; Tao et al., 2002)): increases Bdnf gene expression
C#CCN1C(C)=C(C(=O)OC)C(c2cccc([N+](=O)[O-])c2)C(C(=O)OCC)=C1C (stereo not shown) [N-propargyl nitrendipine]	–	hits and above dotted line	–	–
CCC(C)N(C)C(=O)c1cc2ccccc2c(-c2ccccc2Cl)n1 (stereo not shown) [PK11195]	–	above dotted line	–	–
C[C@H]1CCC/C=C/[C@@H]2C[C@H](O)C[C@H]2[C@H](O)/C=C/C(=O)O1 [brefeldin A]	rediscovered	hits and above dotted line	–	protein transport from the ER to the Golgi complex [3]: inhibit protein transport from the ER to the Golgi complex
CC1(C)[C@H](C(=O)O[C@H](C#N)c2cccc(Oc3ccccc3)c2)[C@@H]1C=C(Br)Br [deltamethrin]	–	–	stimulate Bdnf gene expression	levels of BDNF-NLuc in media (NLuc activity) (BDNF-NLuc [2]; [5]): stimulated BDNF production; also recorded: increased; levels of BDNF-NLuc in neurons (NLuc activity) (BDNF-NLuc [2]; [5]): stimulated BDNF production; also recorded: increased
COc1ccc(-c2ccc(=N)n(CCCC(=O)O)n2)cc1 [gabazine]	–	above dotted line	–	hit status on the average of duplicate assays (FIG. 5C) (BDNF-NLuc [1]; 10 μM, average of 2 sets of plates): exception
CCCCCCCCCCCCCC(=O)O[C@@H]1[C@@H](C)[C@@]2(O)[C@@H](C=C(CO)C[C@]3(O)C(=O)C(C)=C[C@@H]23)[C@@H]2C(C)(C)[C@]12OC(C)=O [phorbol-12-myristate 13-acetate]	just under the threshold	hits and above dotted line	–	effect on Bay K8644-induced Bdnf gene expression (Bdnf gene expression; Zafra et al., 1992): enhance the effect of Bay K8644 on Bdnf gene expression
